Read-outs that look alike come from different tables or passages of the source.
Columns and labels:
PC-3 cells = test: In vitro GRPR specificity assay (uptake with or without NOTA-PEG2-RM26 block); assay type: cell-based, human
Experimental: After discarding the medium, the cells were washed with cold (4 °C) phosphate-buffered saline containing 1% w/v bovine serum albumin (PBS/BSA). The radiopeptides (Cf = 1 nM in 1 mL PBS/BSA) were added to all wells. A subset of wells was also treated with an excess of unlabeled GRPR-binding peptide NOTA-PEG2-RM26 (Bjäreback et al. [2025]) (Cf = 1 µM in 1 mL PBS/BSA) to block GRPR. After incubation for 1 h at 37 °C, the supernatant was removed, and the cells were washed and then collected by treating them with 1 M NaOH. The activity of the collected samples was measured with the gamma counter. This assay was performed in triplicate for each radiopeptide.

[1] = In vivo stability: intact radiopeptide in peripheral mouse blood 5 min pi, radio-HPLC; conditions: for Percentage of intact peptide, Entresto: blood 5 min pi
Experimental: Two animals per peptide were injected intravenously with a bolus of test radioligand (50 MBq, 2 nmol of peptide in 100 μL PBS/EtOH v/v 9:1) – Control group. To inhibit NEP, additional groups of two mice per compound were orally treated with 12 mg Entresto® (Novartis, Basel, Switzerland) 30 min before receiving the intravenous injection—Entresto group. Five minutes post-injection (pi), the animals were euthanized, and the blood was collected and immediately mixed with EDTA (0.1 mM, 40 μL) in Eppendorf tubes on ice. The mixture was spun at 2000 g for 10 min at 4 °C in an Eppendorf Centrifuge 5430 R (Eppendorf AG, Hamburg, Germany), and the plasma was collected and diluted with an equal volume of MeCN (4 °C). After a second centrifugation at 15,000 g and 4 °C for 10 min, the supernatant was collected in an Eppendorf tube and concentrated to 50–100 μL at 50 °C using a mild stream of N2. PBS was added to the samples to reach a final volume of 200 μL, and the solutions were filtered through a syringe filter (0.22 μm, 13 mm, VWR International, Radnor, USA). The filtered solution was analyzed by reversed-phase radio-HPLC to determine the percentage of intact peptides. The peak corresponding to the intact peptide was identified by injection of an aliquot of the labeling solution.

PC-3 xenografts = test: Biodistribution in mice bearing PC-3 xenografts; assay type: in vivo, Balb/c nu/nu mice; conditions: PC-3 xenografted mice, between 4 and 24 h pi
Experimental: (§1) Each mouse was xenografted with a subcutaneous injection of 8 × 10⁶ PC-3 cells in the right hind leg. After approximately 4 weeks, the animals were injected into the tail vein with 100 µL of radiopeptide (100 pmol—110–130 kBq, diluted in PBS/BSA). Four animals were used for each time point per peptide. […] At the determined time points, the mice were euthanized, organs were collected and weighed, and their activity content was measured in the gamma counter. Results were presented as the percentage of injected activity per gram (%IA/g) for the collected organs, and the percentage of injected activity (%IA) for the gastrointestinal tract (GI) and the carcass. […] Statistical analysis was performed with GraphPad Prism 10 using two way ANOVA with Tuckey’s or Šidák’a post hoc analysis.

[2] = Biodistribution in mice bearing PC-3 xenografts; assay type: in vivo, Balb/c nu/nu mice; conditions: mouse, total radioactivity, PC-3 xenografted Balb/c nu/nu mice, iv 100 pmol, mean ± SD; for tissue uptake at 2 h / tissue uptake at 4 h / tissue uptake at 24 h: Balb/c nu/nu, iv; for tissue uptake at 4 h / tissue uptake dose at 4 h: 4 h pi; for tissue uptake at 24 h / tissue uptake dose at 24 h: 24 h pi
Experimental: as §1

[3] = blood, 100 pmol, n = 4, read-out: Blood activity uptake
[4] = bone, 100 pmol, n = 4, read-out: Bone activity uptake
[5] = kidneys, 100 pmol, n = 4, read-out: Kidneys activity uptake
[6] = liver, 100 pmol, n = 4, read-out: Liver activity uptake
[7] = lungs, 100 pmol, n = 4, read-out: Lungs activity uptake
[8] = muscle, 100 pmol, n = 4, read-out: Muscle activity uptake
[9] = pancreas, 100 pmol, n = 4, read-out: Pancreas activity uptake
[10] = small intestine, 100 pmol, n = 4, read-out: Small Int. activity uptake
[11] = spleen, 100 pmol, n = 4, read-out: Spleen activity uptake
[12] = stomach, 100 pmol, n = 4, read-out: Stomach activity uptake
[13] = tumor, 100 pmol, n = 4, read-out: Tumor activity uptake
[14] = carcass, n = 4, read-out: Body activity uptake
[15] = gastrointestinal tract with content, n = 4, read-out: GI activity uptake

Percentage of intact peptide, Entresto ([1]; NMRI mice, 12 mg Entresto orally 30 min before injection, recorded value n1): 90% [90% - 90%]
Percentage of intact peptide, Entresto ([1]; NMRI mice, 12 mg Entresto orally 30 min before injection, recorded value n2): 90% [90% - 90%]
Percentage of intact peptide, Entresto ([1]; healthy NMRI mice, 12 mg Entresto orally 30 min before iv injection (NEP inhibition), radio-HPLC, mean of n = 2): 90% [90% - 90%]
Percentage of intact peptide, Control ([1]; healthy NMRI mice, iv 50 MBq, 2 nmol, peripheral blood 5 min pi, radio-HPLC, mean of n = 2): 91% [88% - 94%]
tumor retention of activity (PC-3 xenografts): around 80%
tissue uptake at 2 h ([2]; blood, 100 pmol, 2 h pi, n = 4, read-out: Blood activity uptake): 0.22 ± 0.04 %ID/g
tissue uptake at 4 h [2, 3]: 0.09 ± 0.02 %ID/g
tissue uptake at 24 h [2, 3]: 0.02 ± 0.01 %ID/g
tissue uptake at 2 h ([2]; blood, 2 h pi blocked (co-injected 100-fold molar excess NOTA-PEG2-RM26), n = 3, read-out: Blood activity uptake): 0.13 ± 0.06 %ID/g
tissue uptake at 2 h ([2]; bone, 100 pmol, 2 h pi, n = 4, read-out: Bone activity uptake): 0.16 ± 0.03 %ID/g
tissue uptake at 4 h [2, 4]: 0.13 ± 0.04 %ID/g
tissue uptake at 24 h [2, 4]: 0.08 ± 0.03 %ID/g
tissue uptake at 2 h ([2]; bone, 2 h pi blocked (co-injected 100-fold molar excess NOTA-PEG2-RM26), n = 3, read-out: Bone activity uptake): 0.11 ± 0.03 %ID/g
tissue uptake at 2 h ([2]; kidneys, 100 pmol, 2 h pi, n = 4, read-out: Kidneys activity uptake): 7.4 ± 1 %ID/g
tissue uptake at 4 h [2, 5]: 5.9 ± 0.8 %ID/g
tissue uptake at 24 h [2, 5]: 4.3 ± 0.8 %ID/g
tissue uptake at 2 h ([2]; kidneys, 2 h pi blocked (co-injected 100-fold molar excess NOTA-PEG2-RM26), n = 3, read-out: Kidneys activity uptake): 5.4 ± 0.7 %ID/g
tissue uptake at 2 h ([2]; liver, 100 pmol, 2 h pi, n = 4, read-out: Liver activity uptake): < 0.5 %ID/g
tissue uptake at 4 h [2, 6]: 0.42 ± 0.03 %ID/g
tissue uptake at 24 h [2, 6]: 0.24 ± 0.02 %ID/g
tissue uptake at 2 h ([2]; liver, 2 h pi blocked (co-injected 100-fold molar excess NOTA-PEG2-RM26), n = 3, read-out: Liver activity uptake): 0.38 ± 0.05 %ID/g
tissue uptake at 2 h ([2]; lungs, 100 pmol, 2 h pi, n = 4, read-out: Lungs activity uptake): 0.6 ± 0.3 %ID/g
tissue uptake at 4 h [2, 7]: 0.24 ± 0.08 %ID/g
tissue uptake at 24 h [2, 7]: 0.09 ± 0.01 %ID/g
tissue uptake at 2 h ([2]; lungs, 2 h pi blocked (co-injected 100-fold molar excess NOTA-PEG2-RM26), n = 3, read-out: Lungs activity uptake): 0.27 ± 0.03 %ID/g
tissue uptake at 2 h ([2]; muscle, 100 pmol, 2 h pi, n = 4, read-out: Muscle activity uptake): 0.09 ± 0.02 %ID/g
tissue uptake at 4 h [2, 8]: 0.1 ± 0.1 %ID/g
tissue uptake at 24 h [2, 8]: 0.02 ± 0.01 %ID/g
tissue uptake at 2 h ([2]; muscle, 2 h pi blocked (co-injected 100-fold molar excess NOTA-PEG2-RM26), n = 3, read-out: Muscle activity uptake): 0.07 ± 0.05 %ID/g
tissue uptake at 2 h ([2]; pancreas, 100 pmol, 2 h pi, n = 4, read-out: Pancreas activity uptake): 11.9 ± 2.1 %ID/g
tissue uptake at 4 h [2, 9]: 4.7 ± 0.4 %ID/g
tissue uptake at 24 h [2, 9]: 0.5 ± 0.2 %ID/g
tissue uptake at 2 h ([2]; small intestine, 100 pmol, 2 h pi, n = 4, read-out: Small Int. activity uptake): 2.2 ± 0.6 %ID/g
tissue uptake at 4 h [2, 10]: 1 ± 0.3 %ID/g
tissue uptake at 24 h [2, 10]: 0.11 ± 0.03 %ID/g
tissue uptake at 2 h ([2]; small intestine, 2 h pi blocked (co-injected 100-fold molar excess NOTA-PEG2-RM26), n = 3, read-out: Small Int. activity uptake): 0.7 ± 0.3 %ID/g
tissue uptake at 2 h ([2]; spleen, 100 pmol, 2 h pi, n = 4, read-out: Spleen activity uptake): 0.4 ± 0.2 %ID/g
tissue uptake at 4 h [2, 11]: 0.25 ± 0.07 %ID/g
tissue uptake at 24 h [2, 11]: 0.16 ± 0.06 %ID/g
tissue uptake at 2 h ([2]; spleen, 2 h pi blocked (co-injected 100-fold molar excess NOTA-PEG2-RM26), n = 3, read-out: Spleen activity uptake): 0.13 ± 0.02 %ID/g
tissue uptake at 2 h ([2]; stomach, 100 pmol, 2 h pi, n = 4, read-out: Stomach activity uptake): 2.5 ± 0.2 %ID/g
tissue uptake at 4 h [2, 12]: 1.9 ± 0.3 %ID/g
tissue uptake at 24 h [2, 12]: 0.16 ± 0.05 %ID/g
tissue uptake at 2 h ([2]; stomach, 2 h pi blocked (co-injected 100-fold molar excess NOTA-PEG2-RM26), n = 3, read-out: Stomach activity uptake): 0.6 ± 0.1 %ID/g
tissue uptake at 2 h ([2]; tumor, 100 pmol, 2 h pi, n = 4, read-out: Tumor activity uptake): 23.8 ± 2.5 %ID/g
tissue uptake at 4 h [2, 13]: 18.8 ± 0.7 %ID/g
tissue uptake at 24 h [2, 13]: 15.3 ± 2.7 %ID/g
tissue uptake at 2 h ([2]; tumor, 2 h pi blocked (co-injected 100-fold molar excess NOTA-PEG2-RM26), n = 3, read-out: Tumor activity uptake): 3.4 ± 0.3 %ID/g
tissue uptake dose at 2 h ([2]; carcass, 2 h pi, n = 4, read-out: Body activity uptake): 2.7 ± 0.8 %ID
tissue uptake dose at 4 h [2, 14]: 2.2 ± 0.4 %ID
tissue uptake dose at 24 h [2, 14]: 1.1 ± 0.7 %ID
tissue uptake dose at 2 h ([2]; gastrointestinal tract with content, 2 h pi, n = 4, read-out: GI activity uptake): 2 ± 0.2 %ID
tissue uptake dose at 4 h [2, 15]: 0.4 ± 0.3 %ID
tissue uptake dose at 24 h [2, 15]: 0.16 ± 0.03 %ID
SMILES: CC(C)C[C@H](NC(=O)C[C@H](O)[C@H](CC(C)C)NC(=O)[C@H](Cc1c[nH]cn1)NC(=O)CN(C)C(=O)[C@@H](NC(=O)[C@H](C)NC(=O)[C@](C)(Cc1c[nH]c2ccccc12)NC(=O)[C@H](CCC(N)=O)NC(=O)[C@@H](Cc1ccccc1)NC(=O)CN1CCC(NC(=O)COCCOCCNC(=O)CN2CCN(CC(=O)O)CCN(CC(=O)O)CCN(CC(=O)O)CC2)CC1)C(C)C)C(N)=O [[^177Lu]Lu-PKB3, metal not drawn]
in vitro binding specificity (PC-3 cells; 1 nM radiopeptide, 1 h at 37 °C, block with 1 µM NOTA-PEG2-RM26, n = 3): GRPR-mediated activity uptake
total cellular activity uptake (rank among the three radiopeptides) (PC-3 cells; 1 nM, 37 °C, n = 3): highest

From PMC12615863, “Improving GRPR-targeting peptides for radiotheranostics application: insights from chelator modifications and α-methyl-L tryptophan substitution” (EJNMMI Radiopharmacy and Chemistry, 2025)
